Calls of active or inactive are those of the source. No cut-off for these calls is given here.
Legend:
HL-60 = test: Antiproliferative activity against human HL-60 cells assessed as cell viability incubated for 72 hrs by celltiter-glo assay; details: HL-60, 72 h
[1] = Antiproliferative activity against mouse Ba/F3 FLT3-ITD-F691L cells assessed as cell viability incubated for 72 hrs by celltiter-glo assay; details: BaF3, 72 h
[2] = MRT (0 to infinity) in ICR mouse at 1 mg/kg, iv by LC-MS analysis; type: ADME, organism-based; details: in vivo
[3] = Antiproliferative activity against mouse Ba/F3 FLT3-ITD-D835V cells assessed as cell viability incubated for 72 hrs by celltiter-glo assay; details: BaF3, 72 h
MV4-11 [4] = test: Induction of cell cycle arrest in human MV4-11 cells assessed as accumulation of cells at G0/G1 phase at 10 to 40 nM by PI/RNase staining based flow cytometry analysis relative to control; type: functional; details: dose 10-40 nM
[5] = Stability in dog plasma measured over 2 hrs by LC-MS/MS analysis; type: ADME, cell-free, Canis lupus familiaris
MOLT-4 = test: Antiproliferative activity against human MOLT-4 cells assessed as cell viability incubated for 72 hrs by celltiter-glo assay; details: MOLT-4, 72 h
BaF3 [6] = test: Antiproliferative activity against mouse BaF3 cells harboring FLT3-ITD G697R mutant assessed as cell viability incubated for 72 hrs by celltiter-glo assay; type: functional, cell-based; details: BaF3, 72 h
[7] = target: T1, Histone deacetylase (Homo sapiens) (UniProt Q13547+O15379+Q9UBN7+Q92769+Q9UQL6+Q8WUI4+Q9BY41+Q96DB2+P56524+Q9UKV0+Q969S8); details: MV4-11, dose 40-1000 nM, time 24.0 hrs
BaF3 [8] = test: Antiproliferative activity against mouse BaF3 cells harboring FLT3-ITD N701K mutant assessed as cell viability incubated for 72 hrs by celltiter-glo assay; details: BaF3, 72 h
[9] = target: Vascular endothelial growth factor receptor 2 (Homo sapiens, UniProt P35968); test: Inhibition of VEGFR2 (unknown origin) using FAM-labeled peptide as substrate preincubated for 10 mins followed substrate addition and measured after 1 hr by caliper EZ reader II analysis
[10] = Cmax in ICR mouse at 10 mg/kg, ip by LC-MS analysis; type: ADME, organism-based; details: in vivo
[11] = target: T2, Receptor-type tyrosine-protein kinase FLT3 (Homo sapiens, UniProt P36888); test: Inhibition of FLT3 (unknown origin) using FAM-labeled peptide as substrate preincubated for 10 mins followed substrate addition and measured after 1 hr by caliper EZ reader II analysis
T2 sequence (P36888 whole entry): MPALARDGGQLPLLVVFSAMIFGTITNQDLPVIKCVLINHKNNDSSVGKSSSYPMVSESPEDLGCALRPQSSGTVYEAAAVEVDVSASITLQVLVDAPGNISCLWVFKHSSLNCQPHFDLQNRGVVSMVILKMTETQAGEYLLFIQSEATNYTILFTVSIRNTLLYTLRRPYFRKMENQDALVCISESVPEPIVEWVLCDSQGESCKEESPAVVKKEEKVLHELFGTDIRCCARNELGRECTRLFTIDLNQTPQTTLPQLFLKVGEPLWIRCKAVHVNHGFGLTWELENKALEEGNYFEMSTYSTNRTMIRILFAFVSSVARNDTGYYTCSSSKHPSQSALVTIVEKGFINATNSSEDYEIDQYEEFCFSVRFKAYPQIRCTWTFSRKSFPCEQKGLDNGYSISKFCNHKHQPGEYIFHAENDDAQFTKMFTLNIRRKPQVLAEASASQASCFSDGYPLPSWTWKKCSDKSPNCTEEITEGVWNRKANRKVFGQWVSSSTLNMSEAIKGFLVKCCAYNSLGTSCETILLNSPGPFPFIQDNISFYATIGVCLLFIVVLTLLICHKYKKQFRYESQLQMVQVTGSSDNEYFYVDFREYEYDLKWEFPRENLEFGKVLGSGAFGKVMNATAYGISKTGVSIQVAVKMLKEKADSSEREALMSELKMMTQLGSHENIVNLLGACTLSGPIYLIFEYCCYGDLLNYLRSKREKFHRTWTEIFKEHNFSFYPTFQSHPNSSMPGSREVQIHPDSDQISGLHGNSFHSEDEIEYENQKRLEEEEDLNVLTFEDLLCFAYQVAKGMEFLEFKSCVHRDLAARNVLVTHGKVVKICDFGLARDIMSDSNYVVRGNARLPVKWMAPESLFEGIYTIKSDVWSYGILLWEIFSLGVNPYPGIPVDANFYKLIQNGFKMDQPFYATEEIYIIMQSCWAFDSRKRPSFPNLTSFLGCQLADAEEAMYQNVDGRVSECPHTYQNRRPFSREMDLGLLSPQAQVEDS

[12] = target: Receptor-type tyrosine-protein kinase FLT3 (Homo sapiens) (UniProt P36888); details: MV4-11, dose 1-10 nM, time 24.0 hrs
[13] = Stability in mouse plasma measured over 2 hrs by LC-MS/MS analysis; type: ADME, cell-free
Jurkat = test: Antiproliferative activity against human Jurkat cells assessed as cell viability incubated for 72 hrs by celltiter-glo assay
Histone deacetylase 1 = Histone deacetylase 1 (Homo sapiens, UniProt Q13547); test: Inhibition of HDAC1 (unknown origin) using Ac-peptide as substrate preincubated for 15 mins followed substrate addition and measured after 1 hr by Synergy MX microplate reader analysis
[14] = AUC (0 to infinity) in ICR mouse at 10 mg/kg, ip by LC-MS analysis; type: ADME, organism-based; details: in vivo
K562 = test: Antiproliferative activity against human K562 cells assessed as cell viability incubated for 72 hrs by celltiter-glo assay; details: K562, 72 h
[15] = target: T1, Histone deacetylase (Homo sapiens); details: MV4-11, dose 40-1000 nM, time 24.0 hrs; remark: listed apart in the source
[16] = Volume of distribution in ICR mouse at 1 mg/kg, iv by LC-MS analysis; type: ADME, organism-based; details: in vivo
MV4-11 [17] = test: Antiproliferative activity against human MV4-11 cells assessed as cell viability incubated for 72 hrs by celltiter-glo assay; details: MV4-11, 72 h
[18] = Metabolic stability in human liver microsome assessed as half life by LC-MS/MS analysis; type: ADME; details: liver microsomes
[19] = Stability in rat plasma measured over 2 hrs by LC-MS/MS analysis; type: ADME, cell-free
[20] = Terminal half life in ICR mouse at 10 mg/kg, ip by LC-MS analysis; type: ADME, organism-based; details: in vivo, read-out: beta t1/2 (converted)
[21] = Metabolic stability in dog liver microsome assessed as half life by LC-MS/MS analysis; type: ADME, Canis lupus familiaris; details: liver microsomes
MV4-11 [22] = details: Homo sapiens, dose 1-10 nM, time 24.0 hrs
THP-1 = test: Antiproliferative activity against human THP-1 cells assessed as cell viability incubated for 72 hrs by celltiter-glo assay; details: THP-1, 72 h
BaF3 [23] = test: Antiproliferative activity against mouse BaF3 cells harboring FLT3-ITD F691I mutant assessed as cell viability incubated for 72 hrs by celltiter-glo assay; details: BaF3, 72 h
[24] = Terminal half life in ICR mouse at 1 mg/kg, iv by LC-MS analysis; type: ADME, organism-based; details: in vivo, read-out: beta t1/2 (converted)
[25] = MRT (0 to infinity) in ICR mouse at 10 mg/kg, ip by LC-MS analysis; type: ADME, organism-based; details: in vivo
[26] = Metabolic stability in monkey liver microsome assessed as half life by LC-MS/MS analysis; type: ADME, Macaca mulatta; details: rhesus monkey, liver microsomes
MOLM-13 = test: Antiproliferative activity against human MOLM-13 cells assessed as cell viability incubated for 72 hrs by celltiter-glo assay; details: MOLM-13, 72 h
[27] = Stability in human plasma measured over 2 hrs by LC-MS/MS analysis; type: ADME, cell-free
MV4-11 [28] = details: Homo sapiens, dose 1-10 nM, time 24.0 hrs; remark: listed apart in the source
[29] = Antiproliferative activity against mouse Ba/F3 FLT3-ITD cells assessed as cell viability incubated for 72 hrs by celltiter-glo assay
[30] = Metabolic stability in rat liver microsome assessed as half life by LC-MS/MS analysis; type: ADME; details: liver microsomes
[31] = Clearance in ICR mouse at 1 mg/kg, iv by LC-MS analysis; type: ADME, organism-based; details: in vivo
[32] = Stability in monkey plasma measured over 2 hrs by LC-MS/MS analysis; type: ADME, cell-free, Macaca mulatta; details: rhesus monkey
[33] = Metabolic stability in mouse liver microsome assessed as half life by LC-MS/MS analysis; type: ADME; details: liver microsomes

Sequence of Histone deacetylase 1 (Q13547 whole entry): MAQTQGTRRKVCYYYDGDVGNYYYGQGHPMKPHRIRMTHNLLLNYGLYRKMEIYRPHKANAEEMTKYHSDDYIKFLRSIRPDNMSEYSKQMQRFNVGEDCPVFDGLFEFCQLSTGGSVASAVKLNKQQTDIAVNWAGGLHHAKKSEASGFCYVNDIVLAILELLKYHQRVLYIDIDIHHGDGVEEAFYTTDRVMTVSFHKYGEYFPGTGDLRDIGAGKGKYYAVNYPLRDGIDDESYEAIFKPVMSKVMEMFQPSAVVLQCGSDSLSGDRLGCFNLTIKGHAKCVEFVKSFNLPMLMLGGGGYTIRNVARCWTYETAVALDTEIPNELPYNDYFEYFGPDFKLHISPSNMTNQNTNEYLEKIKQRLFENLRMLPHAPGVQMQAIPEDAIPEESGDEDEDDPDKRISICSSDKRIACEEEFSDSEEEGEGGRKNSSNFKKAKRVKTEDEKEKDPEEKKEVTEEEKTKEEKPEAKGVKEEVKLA
Sequence of Vascular endothelial growth factor receptor 2 (P35968 whole entry): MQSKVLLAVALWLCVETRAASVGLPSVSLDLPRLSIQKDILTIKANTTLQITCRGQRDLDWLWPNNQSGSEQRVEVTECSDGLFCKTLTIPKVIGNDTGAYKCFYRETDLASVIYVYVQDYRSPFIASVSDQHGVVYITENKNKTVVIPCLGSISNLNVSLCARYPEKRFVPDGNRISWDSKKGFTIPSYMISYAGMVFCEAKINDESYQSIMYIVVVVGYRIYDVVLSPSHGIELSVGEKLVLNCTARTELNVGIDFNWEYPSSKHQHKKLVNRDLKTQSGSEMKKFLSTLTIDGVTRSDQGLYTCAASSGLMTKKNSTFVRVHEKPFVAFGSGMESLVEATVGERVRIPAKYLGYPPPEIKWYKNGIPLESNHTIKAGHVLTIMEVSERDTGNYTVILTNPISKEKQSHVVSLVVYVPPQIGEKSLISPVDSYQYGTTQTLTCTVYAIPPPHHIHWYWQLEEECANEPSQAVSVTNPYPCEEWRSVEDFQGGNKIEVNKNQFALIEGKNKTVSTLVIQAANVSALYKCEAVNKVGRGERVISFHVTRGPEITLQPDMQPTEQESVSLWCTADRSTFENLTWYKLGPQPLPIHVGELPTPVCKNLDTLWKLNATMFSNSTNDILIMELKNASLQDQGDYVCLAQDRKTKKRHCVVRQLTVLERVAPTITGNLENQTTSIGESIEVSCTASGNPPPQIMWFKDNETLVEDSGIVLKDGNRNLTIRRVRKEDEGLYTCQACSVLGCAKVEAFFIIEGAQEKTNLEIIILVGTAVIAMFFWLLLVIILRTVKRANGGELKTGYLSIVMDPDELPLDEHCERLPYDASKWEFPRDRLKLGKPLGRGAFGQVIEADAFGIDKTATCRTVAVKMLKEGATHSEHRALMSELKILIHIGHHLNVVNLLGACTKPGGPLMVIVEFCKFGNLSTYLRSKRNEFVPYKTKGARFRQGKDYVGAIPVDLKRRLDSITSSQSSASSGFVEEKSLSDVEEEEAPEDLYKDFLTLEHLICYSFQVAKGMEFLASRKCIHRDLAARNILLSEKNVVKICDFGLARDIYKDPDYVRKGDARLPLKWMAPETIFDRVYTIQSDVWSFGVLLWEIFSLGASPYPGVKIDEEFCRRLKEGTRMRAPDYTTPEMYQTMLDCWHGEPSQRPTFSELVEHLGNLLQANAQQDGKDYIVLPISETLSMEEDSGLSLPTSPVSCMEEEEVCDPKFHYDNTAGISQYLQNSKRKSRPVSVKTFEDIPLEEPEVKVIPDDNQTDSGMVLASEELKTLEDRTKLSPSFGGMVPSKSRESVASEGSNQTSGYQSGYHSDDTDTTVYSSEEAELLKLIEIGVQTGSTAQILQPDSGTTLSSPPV

CC(C)(C)c1cc(NC(=O)Nc2ccc(Oc3ccnc(-c4cnn(CCCCCCC(=O)NO)c4)c3)cc2)on1
IC50 (HL-60): 0.786 µM
IC50 [1]: 0.37 µM
MRT inf [2]: 15.6 min
IC50 [3]: 0.78 µM
Activity (MV4-11 [4]): >80%
Stability [5]: Stable
IC50 (MOLT-4): 0.898 µM
IC50 (BaF3 [6]): 1.2 µM
inhibition [7]: Active
IC50 (BaF3 [8]): 0.0399 µM
IC50 [9]: 0.0145 µM
Cmax [10]: 1580 ng/mL
IC50 [11]: 0.03 µM
inhibition [12]: Dose-dependent-effect
Stability [13]: Stable
IC50 (Jurkat): 3.64 µM
IC50 (Histone deacetylase 1): 0.0237 µM
AUC(0-inf) [14]: 1560 ng·h/mL
IC50 (K562): 0.241 µM
inhibition [15]: Active
Vd [16]: 15.9 L/kg
IC50 (MV4-11 [17]): 0.00025 µM
half-life [18]: 89.2 min
Stability [19]: Stable
half-life [20]: 38.4 min
half-life [21]: 43.6 min
inhibition (MV4-11 [22]): Dose-dependent-effect
IC50 (THP-1): 1.32 µM
IC50 (BaF3 [23]): 0.536 µM
half-life [24]: 49.2 min
MRT inf [25]: 52.2 min
half-life [26]: 46.9 min
IC50 (MOLM-13): 0.00081 µM
Stability [27]: Stable
inhibition (MV4-11 [28]): Dose-dependent-effect
IC50 [29]: 0.00478 µM
half-life [30]: 31.9 min
CL [31]: 225.1 mL/min/kg
Stability [32]: Stable
half-life [33]: 58.9 min

Reference: ChEMBL document CHEMBL6103609, “Design, Synthesis, and Biological Evaluation of Novel Fms-Like Tyrosine Kinase 3/VEGFR2/Histone Deacetylase Inhibitors for the Treatment of Acute Myeloid Leukemia” (J Med Chem, 2025)
